Source: US8178579B2, “Dioxanes and uses thereof” (President and Fellows of Harvard College, priority 2001, dated 2012)
Entries after “also recorded” stand apart in the source; their conditions may differ. Non-standard residues stand in square brackets, D forms with d. Residues, ends and D or L forms follow the SMILES beside them. Aoe = N[C@@H](CCCCCC(=O)[C@@H]1CO1)C(=O)O

What was measured:
[1] = system: α-tubulin deacetylation; experiment: acetylated α-tubulin in cells (AcTubulin cytoblot, immunofluorescence, Western blot); type: cell-based, human; settings: for effect on tubulin deacetylation / α-tubulin acetylation in cells: A549 (also BS-C-1) cells, tubacin/JCWII114, niltubacin/JCWII153 2 μM, TSA 100 nM-4 μM, library ~2-5 μM, 18 h
Procedure: (§1) A549 cells were seeded at a density of 4,000 cells/50 μl in DMEM+ in white tissue culture-treated 384-well plates (Nalge Nunc) using a Multidrop 384 liquid dispenser (Labsystems). Library small molecules were pinned twice (100-150 nl/pin) from ˜1 mM stock solutions (DMSO) and incubated for 18 hours. For the ITSA1+AcTubulin assay, ITSA1 (50 μM) was added four hours after pin-transfer of library molecules. Media was aspirated with a 16-channel wand. For the acetylated α-tubulin cytoblot (AcTubulin), 40 μl/well of fixation solution (3.7% formaldehyde (1:10 from 37% stock) in Tris-buffered saline (TBS, 0.15 M NaCl, 0.02 M Tris-Cl, pH 7.4) was added and plates incubated for twenty minutes at room temperature. After aspiration, 30 μl 100% methanol (−20° C.) was added and incubated for five minutes at room temperature. After aspirating and washing three times with 90 μl of antibody dilution buffer (ADB, TBS/2% bovine serum albumin, 0.1% TritonX-100) the wells were blocked for twenty minutes in ADB. After aspirating, 20 μl/well of ADB containing anti-acetylated α-tubulin antibody (mouse; 1:1000) and anti-mouse IgG horseradish peroxidase (HRP)-conjugated antibody (1:750) was added and incubated overnight (4° C.). For the anti-acetyl lysine cytoblot (AcLysine), 40 μl/well of fixation solution (95% ethanol/5% acetic acid, −20° C.) was added and plates incubated for five minutes at room temperature. Wells were aspirated, washed, and blocked in ADB as for the AcTubulin protocol. After aspirating, 20 μl/well of ADB containing anti-acetylated lysine (rabbit; 1:375) and anti-rabbit IgG-HRP conjugated antibody (1:750) was added and incubated overnight (4° C.). For the anti-acetylated histone H3 (AcHistH3) and anti-acetylated histone H4 (AcHistH4) cytoblots, cells were fixed, washed, and blocked in ADB as for the AcLysine cytoblot. After aspirating, 20 μl/well of ADB containing anti-acetylated histone H3 antibody (rabbit, 1:500) or anti-acetylated histone H4 antibody (rabbit, 1:500) was added and incubated for two hours at room temperature. Wells were aspirated and washed twice with 80 μl of ADB. After aspirating, 20 μl/well of ADB containing anti-rabbit IgG-HRP conjugated antibody (1:1000) was added and incubated for two hours (room temperature). For the AcTubulin and AcLysine assays, plates were washed three times with TBS before adding 20 μl/well of enhanced chemiluminescent (ECL) mixture. For the AcHistH3 and AcHistH4 assays, plates were washed three times with 80 μl TBS with 1% Triton X-100 and once with 80 μl TBS before adding 20 μl/well of ECL mixture. Plates were read on an Analyst plate reader (LJL Biosystems) with an integration time of 0.1 seconds.
(§2) 1,3-dioxanes from single polystyrene macrobeads were prepared as 1-2 mM stock solutions in DMSO as described [Hubbert, C., Guardiola, A., Shao, R., Kawaguchi, Y., Ito, A., Nixon, A., Yoshida, M., Wang, X. F., and Yao, T. P. (2002). HDAC6 is a microtubule-associated deacetylase. Nature 417, 455-458]. Bead decoding and structure determination were as described [See for example, Hubbert, C., Guardiola, A., Shao, R., Kawaguchi, Y., Ito, A., Nixon, A., Yoshida, M., Wang, X. F., and Yao, T. P. (2002). HDAC6 is a microtubule-associated deacetylase. Nature 417, 455-458; and Piperno, G., LeDizet, M., and Chang, X. J. (1987). Microtubules containing acetylated alpha-tubulin in mammalian cells in culture. J. Cell Biol. 104, 289-302]. Small molecules (˜2-5 μM) of interest were retested using a sample from the plate of stock solutions by fluorescence microscopy and comparison to the effects of trichostatin (300 nM to 1 μM).
(§3) A549 cells were seeded at a density of 50,000/200 μl in DMEM+ on the surface of glass coverslips on top of Parafilm in a 10 cm dish and allowed to attach overnight. For detection of acetylated α-tubulin, cells were permeabilized and fixed with 100 mM K-PIPES, pH 6.8, 10 mM EGTA, 1 mM MgCl2, 0.2% triton X-100, 0.2% glutaraldehyde for fifteen minutes. […]

[2] = system: histone deacetylation; experiment: acetylated lysine / acetylated histone in cells (AcLysine cytoblot, immunofluorescence, Western blot); type: cell-based, human; settings: A549 (also BS-C-1) cells, tubacin, niltubacin 2 μM, histacin 20 μM, library ~2-5 μM, 18 h
Procedure: as §1, §2, §3

[3] = molecular target: T1, HDAC6F (Homo sapiens, UniProt Q9UBN7); experiment: in vitro tubulin deacetylase (TDAC) assay, immunoprecipitated wild-type HDAC6F, MAP-stabilized tubulin; type: biochemical; settings: TSA 300 nM or 1 μM, tubacin, niltubacin, trapoxin B 1 μM
T1 construct: made in house; host or cells: TAg Jurkat cells, transient transfection, anti-FLAG M2 immunoprecipitation
T1 sequence (Q9UBN7 1-1215): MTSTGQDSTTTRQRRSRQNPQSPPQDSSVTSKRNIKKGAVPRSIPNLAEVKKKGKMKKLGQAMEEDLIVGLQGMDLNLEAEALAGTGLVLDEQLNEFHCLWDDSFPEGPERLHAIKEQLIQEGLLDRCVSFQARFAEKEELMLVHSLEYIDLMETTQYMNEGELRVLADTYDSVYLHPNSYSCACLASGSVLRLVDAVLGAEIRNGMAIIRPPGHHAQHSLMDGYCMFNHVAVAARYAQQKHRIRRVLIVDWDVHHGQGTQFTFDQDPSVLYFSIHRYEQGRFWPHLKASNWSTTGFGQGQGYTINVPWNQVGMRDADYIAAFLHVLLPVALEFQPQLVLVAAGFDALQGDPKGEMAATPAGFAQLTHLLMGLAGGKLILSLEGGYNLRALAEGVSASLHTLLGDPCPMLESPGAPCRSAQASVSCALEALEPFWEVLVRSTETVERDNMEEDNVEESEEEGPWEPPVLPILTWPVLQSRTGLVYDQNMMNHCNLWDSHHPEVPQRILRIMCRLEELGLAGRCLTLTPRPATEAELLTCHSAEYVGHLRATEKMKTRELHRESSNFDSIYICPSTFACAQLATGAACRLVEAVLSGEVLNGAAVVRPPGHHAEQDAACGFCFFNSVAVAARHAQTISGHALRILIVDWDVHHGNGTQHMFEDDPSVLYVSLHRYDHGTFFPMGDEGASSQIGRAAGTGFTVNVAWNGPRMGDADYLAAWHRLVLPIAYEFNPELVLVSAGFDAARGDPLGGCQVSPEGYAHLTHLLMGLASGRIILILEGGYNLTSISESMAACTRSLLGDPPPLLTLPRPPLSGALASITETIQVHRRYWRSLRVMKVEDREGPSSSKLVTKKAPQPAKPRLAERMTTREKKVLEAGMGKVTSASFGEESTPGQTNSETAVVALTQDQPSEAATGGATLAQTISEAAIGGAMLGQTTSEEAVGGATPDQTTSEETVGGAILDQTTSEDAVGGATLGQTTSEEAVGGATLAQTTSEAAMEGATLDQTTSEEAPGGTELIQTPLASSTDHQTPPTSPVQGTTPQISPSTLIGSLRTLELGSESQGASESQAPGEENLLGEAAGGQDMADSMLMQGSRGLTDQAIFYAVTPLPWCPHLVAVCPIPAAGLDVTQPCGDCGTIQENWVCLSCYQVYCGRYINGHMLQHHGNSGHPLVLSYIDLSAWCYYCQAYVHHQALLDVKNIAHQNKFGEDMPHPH
Excerpt: Tubulin and MAPs were isolated from bovine brain as described [See http://mitchison.med.harvard.edu/protocols/tubprep.html]. Whole brain and fractions from phosphocellulose chromatography were blotted for HDAC6 and acetylated α-tubulin. Cultured hippocampal neurons from dissociated 1-day old rat brains were transfected with an enhanced green fluorescent protein (EGFP)-actin construct at 4-5 days using the calcium phosphate method [E. N. Star, D. J. Kwiatkowski and V. N. Murthy, Nat. Neurosci. […] K. Miranti and M. E. Greenberg, J. Neurosci. […] Transfected cultures were allowed to grow for at least 48 h before the addition of experimental compounds.
[^3H]Acetate-incorporated histones were isolated from butyrate-treated HeLa cells as described [J. Taunton, C. […] Immunoprecipitates were incubated with acetylated histones and HDAC activity determined by scintillation counting as described [J. Taunton, C. […] TDAC assays were performed with immunoprecipitates using MAP-stabilized microtubules polymerized from MAP-rich tubulin fraction as described [C. […] Reactions were incubated (2 h) at 37° C., then incubated on ice (15 min).

[4] = system: A549 cells; experiment: mitotic abnormalities by immunofluorescence; type: cell-based, human; settings: 18 h or 24 h treatment, TSA 10 μM in FIG. 42C
Procedure: Detection of acetylated α-tubulin and acetylated histones by immunofluorescence was performed as described in Example 6 above. For determining microtubule stability, A549 cells were treated as indicated, fixed in glutaraldehyde, and stained for acetylated α-tubulin and total α-tubulin in antibody dilution buffer (ADB, Tris-buffered saline (TBS), 0.15 M NaCl, 0.02 M Tris-Cl, pH 7.4, with 2% bovine serum albumin and 0.1% Triton-X 100). For cold-depolymerization, cells were incubated at 4° C. or 37° C. for an additional 90 minutes before fixation. For calcium depolymerization, cells were incubated at 37° C. for 10 minutes in a microtubule-stabilizing buffer (0.2% NP-40, 5 mM MgCl2, 2 mM EGTA, 2 M glycerol, 100 mM PIPES, pH 6.8) with and without the addition of CaCl2 (2 mM) before glutaraldehyde fixation. For co-localization experiments, biotubacin (50 μM) treated A549 cells were fixed in 3.7% formaldehyde in TBS and processed as for detecting acetylated α-tubulin (See Example 6 above) with biotubacin detected using streptavidin-TR (1:500). HDAC6 was detected using a rabbit polyclonal antibody (1:250-1:750; C.M.G., unpublished data) under the conditions used to detect acetylated α-tubulin (See Example 6 above). Filamentous actin in HT-1080 cells was detected using TR-conjugated phalloidin (1 μg/mL), and depolymerized actin using FITC-conjugated deoxyribonuclease (10 μg/mL), following fixation in 3.7% formaldehyde in TBS. p58 (1:100) in NIH-3T3 cells was detected after fixation in 3.7% formaldehyde in TBS. Images for these experiments were collected on a Zeiss LSM510 confocal scanning laser microscope at the appropriate wavelengths using the accompanying software and processed with Adobe Photoshop. Deconvoluted serial images of TSA and DMSO treated A549 cells were obtained by taking sections (8μ) on a Zeiss Axioskop 2 microscope using an AxioCam camera and the accompanying software. Rat hippocampal neuronal cultures were fixed at room temperature for 15 min in phosphate-buffered saline (PBS) containing 4% paraformaldehyde. […]

[5] = listed as carboxylic acid analogue of JCWII114

Which results are given for `O=C(O)CCCCCCC(=O)Nc1ccc([C@@H]2OC(c3ccc(CO)cc3)C[C@H](CSc3nc(-c4ccccc4)c(-c4ccccc4)o3)O2)cc1` (stereo partly shown) [JCWII153]?
effect on tubulin deacetylation / α-tubulin acetylation in cells [1]: inactivity; also recorded: had no effect on α-tubulin or histone acetylation; effect on tubulin deacetylation / α-tubulin acetylation in cells [1, 5]: did not affect histone or tubulin deacetylation; effect on histone deacetylation / lysine or histone acetylation in cells [2]: inactivity; also recorded: had no effect on α-tubulin or histone acetylation; effect on histone deacetylation / lysine or histone acetylation in cells [2, 5]: did not affect histone or tubulin deacetylation; inhibition of TDAC activity of wild-type HDAC6F [3]: did not; also recorded: not inhibited by the addition of niltubacin or trapoxin

How did the “effect on tubulin deacetylation / α-tubulin acetylation in cells” value [1] turn out when `O=C1N[C@@H](Cc2ccccc2)C(=O)N2CCC[C@@H]2C(=O)N[C@@H](CCCCCC(=O)[C@@H]2CO2)C(=O)N[C@H]1Cc1ccccc1` [trapoxin, trapoxin B, reference compound] (cyclo(FF[dP][Aoe])) was run?
The value was “have no effect upon α-tubulin acetylation levels”.

What about the “inhibition of TDAC activity of wild-type HDAC6F” value [3] of the same compound?
Its value is “not inhibited by the addition of niltubacin or trapoxin”.

What about the “inhibition of TDAC activity of wild-type HDAC6F” value ([3]; listed as trapoxin B) of the same compound?
Its value is “did not”.

Which results are given for `C[C@@H]1NC(=O)[C@H]2CCCN2C(=O)[C@H](CCCCCC(=O)[C@@H]2CO2)NC(=O)[C@@H](C)NC1=O` [HC toxin, reference compound]?
effect on tubulin deacetylation / α-tubulin acetylation in cells [1]: have no effect upon α-tubulin acetylation levels; also recorded: no effect on tubulin acetylation; mitotic abnormalities [4]: caused a significant number of abnormal mitotic cells

Which “potency of inducing α-tubulin acetylation relative to tubacin” value ([1]; AcTubulin cytoblot (enantiotubacin), cells (biotubacin)) does the source give for `O=C(CCCCCCC(=O)Nc1ccc(C2OC(CSc3nc(-c4ccccc4)c(-c4ccccc4)o3)CC(c3ccc(CO)cc3)O2)cc1)NO` (stereo not shown) [JCWII169] here?
The value was “equally as potent as tubacin”.

What about the “selectivity as TDAC inhibitor relative to tubacin (fold less selective)” value ([1]; after re-synthesis and retesting, unpublished data) of the same compound?
Its value is about 5 fold.

What about the “potency and selectivity of the enantiomers JCWII114 and JCWII169 compared” value ([1]; immunofluorescence and Western blot, A549 cells, 5 h or 18 h) of the same compound?
The value was “No significant difference in selectivity or potency”.
